Patent US9702824B2, “pH sensors” (PROMEGA CORPORATION, priority 2012, dated 2017)

Assays:
[1] = Fluorescence intensity loss and recovery when titrated with base and acid; format: physicochemical; conditions: titrated from pH 4 to approximately 8 with NaOH and back to approximately 4 with HCl
Procedure: This example was performed to determine if fluorescence intensity of a pH sensor of the present invention, PBI-4479, which is mostly fluorescent at pH 4, could be recovered when titrated to basic pH, then back to acidic pH. In order to limit disruption of the concentration of the sensor, the experiment was run in a large volume, and the pH was adjusted dropwise with a concentrated base, then with an acid. The product was first dissolved in DMSO to create a concentrated stock, and then a small amount was diluted into 100 mL 10 mM sodium phosphate buffer pH 4.0. Fluorescence was recorded on a HoribaJobinYvon Fluorolog throughout the experiment using an excitation of 528 nm, and emission at 557 nm maintaining a slit width of 2 nm. Excitation and emission maxima were also determined for each aliquot in the event the fluorescence properties of the molecule changed. pH was monitored using a calibrated pH probe (Denver Instruments Model 215 pH meter). 1 mL aliquots were removed when the solution increased to approximately one pH unit, and fluorescence was measured using the parameters stated above. The solution was first titrated dropwise with 2N sodium hydroxide while stirring, until a pH of approximately 8 was attained. The solution was then titrated down with 4N hydrochloric acid until a pH of approximately 4 was attained.

[2] = test system: U2-OS NLS cells (U2-OS cells stably expressing a HaloTag protein with a nuclear localization sequence); test: Permeability, pulse with sensor and chase with Oregon Green (Example 4); format: cell-based; conditions: 0-20 uM pulse for 1 hour
Procedure: Experiments were conducted during development of embodiments of the present invention to determine the permeability and specificity of the pH sensor. U2-OS cells (for specificity) and U2-OS NLS cells (U2-OS cells stably expressing a HaloTag protein with a nuclear localization sequence (NLS); for permeability) were treated with the PBI-4479 sensor. Cells were plated at 40,000 cells/well in 200 ul McCoy's 5A media+10% FBS (“complete media”) onto LTII chamber slides. The cells were then incubated overnight at 37° C., 5% CO2. The cells were then pulsed with PBI-4479 from 0-20 uM for 1 hour. […] Cells were then imaged on an Olympus FV500.

[3] = pH dependence of fluorescence emission; format: physicochemical
Procedure: (§1) Experiments were conducted during development of embodiments of the present invention to determine the fluorescence characteristics of exemplary pH sensor agents PBI-4453 and PBI-4479 (SEE FIG. 1). Fluorescence excitation and emission intensities were measured at a range of wavelengths (SEE FIG. 2). […] Fluorescence detection was performed at a range of pH values (SEE FIG. 3).

[4] = Stability in DMSO by fluorescent emission intensity; format: physicochemical; conditions: for Emission intensity, Ave: average of days 0-110; for Emission intensity: shielded from light, 562 nm, pH 4.0
Procedure: PBI-4479 was dissolved to 2 mM in DMSO to approximately 2.33 mg/mL. Aliquots of 350 uL from the 2 mM solution were stored shielded from light at −20° C., 4° C. and room temperature. Stability was established by measuring fluorescent emission intensity and by testing HPLC purity at time 0, 1 day, 1 week, 1 month, 4 months, and 6 months from when the solutions were prepared and stored. For the fluorescence measurements, each aliquot was diluted (1 uL) into 4 mL of 0.1M sodium phosphate pH 4.0 directly into a 4.5 mL plastic cuvette and mixed by inversion of the vial. The maximum emission peak at 562 nm was acquired using a HoribaJobinYvon fluorometer using an excitation of 532 nm with 1.5 nm slit width. For HPLC measurements, each aliquot was diluted to 1 mM in 0.1M sodium phosphate pH 4.0, and 2 uL tested. The purity of each aliquot was tested using an Agilent 1100 liquid chromatography system equipped with a quaternary pump and a diode-array detector. The diode-array detector was set at 254 nm and 532 nm. The elution was performed using a mobile phase (A) containing 0.1% TFA in water, and a mobile phase (B) containing HPLC grade acetonitrile. A Phenomenex Synergi MAX-RP column (50×4.6 mm; 2.6 μm) was used to perform the chromatography. The HPLC was performed as follows: a gradient ran 3% to 60% mobile phase (B) to 3.60 minutes, a hold at 60% mobile phase (B) for 1 minute, a ramp up to 100% mobile phase (B) to 6 minutes, another hold at 100% mobile phase (B) for 2 minutes, and then back to 3% mobile phase (B) for 1.5 minutes. The column was given 2.5 minutes to re-equilibrate back to the starting conditions. In these conditions, the product elutes at approximately 3.7 minutes. Purity (as area percent) of the product was reported at 254 nm and 532 nm.

[5] = Fluorescence excitation and emission spectra of pH sensor agents; format: physicochemical
Procedure: as §1

U2OS cells = test: Toxicity, CELLTITER-GLO Luminescent Cell Viability Assay (Example 3); format: cell-based; conditions: 0 nM to 20 uM, 24 hour
Procedure: The toxicity of dyes PBI-4479 and PBI-4453 was tested in U2OS cells. The cells were plated at 20,000 cells/well in McCoy's 5A media+10% FBS into wells of a 96-well plate. The compounds were then serially diluted 2-fold in McCoy's 5A+10% FBS to a 10× working solution. 10 ul of the working solution was added to the cells to a final concentration of 0 nM to 20 uM. The treated cells were then incubated overnight at 37° C., 5% CO2. Toxicity was tested using Promega's CELLTITER-GLO Luminescent Cell Viability Assay according to the manufacturer's protocol. No toxicity was seen across varying concentrations of the compounds over the 24 hour period (SEE FIG. 9).

With O=C(NCCOCCOCCOCCOCCOCCOCCCCCCCl)c1ccc(C(=O)[O-])c(-c2c3ccc(=[N+]4CCN(CCCCS(=O)(=O)O)CC4)cc-3oc3cc(N4CCN(CCCCS(=O)(=O)O)CC4)ccc23)c1 [PBI-4479] the “reversibility of fluorescence intensity” value [1] was “fluorescent intensity loss and recovery”, the “cell permeability (labeling of HaloTag-NLS)” value [2] was “impermeable” and the “pH at or below which maximal fluorescence intensity is exhibited” value [3] was no more than 3. For the same compound, the “percent of maximal fluorescence intensity” value ([3]; at pH 8 or higher) was no more than 1%, the pKa ([3]; from pH dependence of fluorescence) was roughly 6.1 and the “degradation by fluorescence intensity” value ([4]; 2 mM DMSO solution stored at room temperature) was “slight degradation”. For the same compound, the “Emission intensity, Ave” value ([4]; 2 mM in DMSO, 4° C.) was 2096856.0, the “Emission intensity, Ave” value ([4]; 2 mM in DMSO, RT) was 2193684.0 and the Emission intensity ([4]; 2 mM in DMSO, 4° C., 0 days) was 2109020. For the same compound, the Emission intensity ([4]; 2 mM in DMSO, 4° C., 1 day) was 2203160, the Emission intensity ([4]; 2 mM in DMSO, 4° C., 7 days) was 2055280 and the Emission intensity ([4]; 2 mM in DMSO, 4° C., 30 days) was 2076310. The Emission intensity ([4]; 2 mM in DMSO, 4° C., 110 days) was 2040510, the Emission intensity ([4]; 2 mM in DMSO, RT, 0 days) was 2109020 and the Emission intensity ([4]; 2 mM in DMSO, RT, 1 day) was 2641010. For the same compound, the Emission intensity ([4]; 2 mM in DMSO, RT, 7 days) was 2092940, the Emission intensity ([4]; 2 mM in DMSO, RT, 30 days) was 2158320 and the Emission intensity ([4]; 2 mM in DMSO, RT, 110 days) was 1967130. It also gave an Emission intensity ([4]; 2 mM in DMSO, −20° C., 0 days) of 2109020, an Emission intensity ([4]; 2 mM in DMSO, −20° C., 1 day) of 2336260 and an Emission intensity ([4]; 2 mM in DMSO, −20° C., 7 days) of 2006990. The Emission intensity ([4]; 2 mM in DMSO, −20° C., 30 days) was 2191770, the Emission intensity ([4]; 2 mM in DMSO, −20° C., 110 days) was 1926570 and the time stable ([4]; 2 mM in DMSO, stored below room temperature, by emission intensity and HPLC purity) was “at least 180 days”. For the same compound, the “Emission intensity, Ave” value ([4]; 2 mM in DMSO, −20° C.) was 2114122.0, the emission maximum [5] was 562 nm and the excitation maximum [5] was 534 nm. The “toxicity (cell viability)” value (U2OS cells) was “No toxicity”.
